Results taken from PubChem BioAssay AID2060504 (Molecular Pharmacology Branch, DTP, NCI, 2025).

Tested on: 636577-100-R-J1-PDC complex spheroid viability
Experiment: Anticancer human tumor 636577-100-R-J1-PDC patient-derived endometrial adenocarcinoma cell line growth inhibition [GQUAD]
Conditions: for IC50: curve of first compound; for viability, T/C: stronger effect = lower value
Source text: DNA G-quadruplex Stabilizer Agents in Combinations in Complex Spheroids
A high-throughput screen of multi-cell type tumor spheroids was designed to identify active combinations of DNA G-quadruplex stabilizer agents and targeted small molecules. Complex spheroids include a stromal component modeled by human endothelial cells (HUVEC) and fibroblasts modeled by human mesenchymal stem cells (MSCs). The concentration ranges selected for each drug and investigational agent were based upon clinically achievable concentrations if the clinical Cmax of the agent was known.
Compounds. The drugs and investigational agents: pidnarulex (CX-5461; NSC782164), APTO-253 (NSC789042), BRACO-19 (NSC847499), peposertib (NSC802822), ceralasertib (NSC780249), elimusertib (NSC800525), camonsertib (NSC841442), AZD-1390 (NSC803789), olaparib (NSC753686), talazoparib (NSC767125), ART-558 (NSC835418), sotorasib (NSC818433), MRTX-1133 (NSC836407), SN-38 (NSC673596), topotecan (NSC609699), etoposide (NSC141540), doxorubicin (NSC123127), gemcitabine (NSC613327), 5-fluorouracil (NSC19893), paclitaxel (NSC125973), vemurafenib (NSC761431), panobinostat (NSC761190), R-306465 (JNJ-16241199; NSC773264), adavosertib (NSC754352), TP-3654 (NSC805149), carboplatin (NSC241240), KSQ-4279 (NSC840948), and staurosporine (NSC755774) were obtained from the National Cancer Institute (NCI) Developmental Therapeutics Program Chemical Repository (34). The FDA-approved anticancer drug set is available from the NCI Developmental Therapeutics Program. […] The stock solutions were prepared in dimethyl sulfoxide (DMSO, Sigma-Aldrich, St. Louis, MO, cat. D2650) at 800-fold the tested concentration and stored at -70 degrees C prior to their use. All drugs and investigational agents were tested over a range starting from a high concentration at or near the clinical Cmax and decreasing in half-log increments. If the clinical Cmax for an agent had not been determined, the highest concentration tested was 10 microM.
2.3 Cell Culture. All cells were maintained in an incubator at 37 degrees C and 5% CO2 with 95% humidity. The PDC lines were cultured according to standard operating procedures established by the NCI PDMR. All PDCs were thawed and cultured in Matrigel-coated flasks prepared with a working solution of 1X Ham's F-12 nutrient mix, without supplementation (Invitrogen, cat. 11765054), 100 U/mL penicillin-streptomycin (Invitrogen, cat. 15140122), and 2.5% Matrigel (Corning Inc., cat. 354248) for the first three passages. The 857933-349-R-J2-PDC line was cultured in 6C/Colon 1B media, which includes advanced DMEM/F-12 (Thermo Fisher Scientific, cat. 12634028), 10 mM HEPES (Thermo Fisher Scientific, cat. 15630080), 1X GlutaMAX supplement (Thermo Fisher Scientific, cat. 35050061), 0.1 mg/mL primocin (InvivoGen, cat. ant-pm-2), 10% defined fetal bovine serum, heat inactivated (HyClone Laboratories Inc., cat. SH30070.03HI), 50% L-WRN conditioned media (ATCC, cat. CRL-3276), 1.25 mM N-Acetyl-L-cysteine (Sigma-Aldrich, cat. A9165), 10 mM nicotinamide (Sigma-Aldrich, cat. N0636), 1X B-27 supplement (Thermo Fisher Scientific, cat. 17504044), 1X N-2 supplement (Thermo Fisher Scientific, cat. 17502048), 10 microM Y-27632 dihydrochloride (Tocris Bioscience, cat. 1254), and 50 ng/mL human EGF recombinant protein (Thermo Fisher Scientific, cat. PHG0311). The 485176-168-R4-J1-PDC line was cultured in Panc media, which includes all 6C/Colon 1B media components plus 100 ng/mL human FGF-10 (Thermo Fisher Scientific, cat. 100-26), 500 nM SB-431542 (Selleckchem, cat. S1067), and gastrin (Tocris, cat. 3006).
[…]

[1] = second compound 0.0316 µM, first compound 0.0316 µM
[2] = second compound 0.0316 µM, first compound 0.316 µM
[3] = second compound 0.1 µM, first compound 0.0316 µM
[4] = second compound 0.1 µM, first compound 0.316 µM
[5] = second compound 0.316 µM, first compound 0.0316 µM
[6] = second compound 0.316 µM, first compound 0.316 µM
[7] = second compound 1 µM, first compound 0.0316 µM
[8] = second compound 1 µM, first compound 0.316 µM
[9] = second compound 3.16 µM, first compound 0.0316 µM
[10] = second compound 3.16 µM, first compound 0.316 µM
[11] = second compound 10 µM, first compound 0.0316 µM
[12] = second compound 10 µM, first compound 0.316 µM
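Further: viability read after seven days of drug exposure.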
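Wherever viability, T/C is given: luminescence signal used as a proxy for viable cells; 100% = DMSO vehicle control wells.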

Compound `CC1COCCN1c1cc(C2(O)CC3CCC(C2)O3)c2cnn(-c3ccn[nH]3)c2n1` (centres undefined) + Cc1cnc(CNC(=O)c2c(=O)c3ccc(N4CCCN(C)CC4)nc3n3c2sc2ccccc23)cn1 has an IC50 (second compound 0.0316 µM) of less than 31.6 nM, an IC50 (second compound 0.1 µM) of less than 31.6 nM and an IC50 (second compound 0.316 µM) of less than 31.6 nM. The IC50 (second compound 1 µM) was less than 31.6 nM, the IC50 (second compound 3.16 µM) was less than 31.6 nM and the IC50 (second compound 10 µM) was less than 31.6 nM. For the same compound, the viability, T/C [1] was 28.1%, the viability, T/C (second compound 0.0316 µM, first compound 0.1 µM) was 18.8% and the viability, T/C [2] was 14.3%. For the same compound, the viability, T/C (second compound 0.0316 µM, first compound 1 µM) was 6.98%, the viability, T/C (second compound 0.0316 µM, first compound 3.16 µM) was 2.58% and the viability, T/C (second compound 0.0316 µM, first compound 10 µM) was 1.35%. The viability, T/C [3] was 21%, the viability, T/C (second compound 0.1 µM, first compound 0.1 µM) was 17.8% and the viability, T/C [4] was 15.2%. The viability, T/C (second compound 0.1 µM, first compound 1 µM) was 6.8%, the viability, T/C (second compound 0.1 µM, first compound 3.16 µM) was 3.54% and the viability, T/C (second compound 0.1 µM, first compound 10 µM) was 1.24%. For the same compound, the viability, T/C [5] was 17.7%, the viability, T/C (second compound 0.316 µM, first compound 0.1 µM) was 16.3% and the viability, T/C [6] was 13.8%. For the same compound, the viability, T/C (second compound 0.316 µM, first compound 1 µM) was 7.53%, the viability, T/C (second compound 0.316 µM, first compound 3.16 µM) was 3.12% and the viability, T/C (second compound 0.316 µM, first compound 10 µM) was 1.5%. The viability, T/C [7] was 15%, the viability, T/C (second compound 1 µM, first compound 0.1 µM) was 14.2% and the viability, T/C [8] was 11.4%. The viability, T/C (second compound 1 µM, first compound 1 µM) was 6.81%, the viability, T/C (second compound 1 µM, first compound 3.16 µM) was 3.62% and the viability, T/C (second compound 1 µM, first compound 10 µM) was 1.25%. It also gave a viability, T/C [9] of 16.1%, a viability, T/C (second compound 3.16 µM, first compound 0.1 µM) of 16.7% and a viability, T/C [10] of 13.5%. It also gave a viability, T/C (second compound 3.16 µM, first compound 1 µM) of 8.88%, a viability, T/C (second compound 3.16 µM, first compound 3.16 µM) of 3.75% and a viability, T/C (second compound 3.16 µM, first compound 10 µM) of 1.52%. It also gave a viability, T/C [11] of 15.6%, a viability, T/C (second compound 10 µM, first compound 0.1 µM) of 15.8% and a viability, T/C [12] of 14%. It also gave a viability, T/C (second compound 10 µM, first compound 1 µM) of 6.65%, a viability, T/C (second compound 10 µM, first compound 3.16 µM) of 2.67% and a viability, T/C (second compound 10 µM, first compound 10 µM) of 0.14%.
Work on `CC[C@@]1(O)C(=O)OCc2c1cc1n(c2=O)Cc2cc3c(CN(C)C)c(O)ccc3nc2-1` + CN(C)c1ccc(Nc2c3ccc(NC(=O)CCN4CCCC4)cc3nc3cc(NC(=O)CCN4CCCC4)ccc23)cc1 yielded an IC50 (second compound 0.0316 µM) of 18.5 nM, an IC50 (second compound 0.1 µM) of 18.6 nM and an IC50 (second compound 0.316 µM) of 18.7 nM. The IC50 (second compound 1 µM) was 11.8 nM, the IC50 (second compound 3.16 µM) was less than 0.999 nM and the IC50 (second compound 10 µM) was less than 0.999 nM. It also gave a viability, T/C (second compound 0.0316 µM, first compound 0.000999 µM) of 108%, a viability, T/C (second compound 0.0316 µM, first compound 0.00316 µM) of 75.3% and a viability, T/C (second compound 0.0316 µM, first compound 0.00999 µM) of 72.1%. The viability, T/C [1] was 37.2%, the viability, T/C (second compound 0.0316 µM, first compound 0.0999 µM) was 21.1% and the viability, T/C [2] was 27.1%. For the same compound, the viability, T/C (second compound 0.1 µM, first compound 0.000999 µM) was 88.6%, the viability, T/C (second compound 0.1 µM, first compound 0.00316 µM) was 74.7% and the viability, T/C (second compound 0.1 µM, first compound 0.00999 µM) was 74.2%. The viability, T/C [3] was 29.5%, the viability, T/C (second compound 0.1 µM, first compound 0.0999 µM) was 22.3% and the viability, T/C [4] was 23.6%. The viability, T/C (second compound 0.316 µM, first compound 0.000999 µM) was 77.8%, the viability, T/C (second compound 0.316 µM, first compound 0.00316 µM) was 65.9% and the viability, T/C (second compound 0.316 µM, first compound 0.00999 µM) was 62.7%. For the same compound, the viability, T/C [5] was 41.5%, the viability, T/C (second compound 0.316 µM, first compound 0.0999 µM) was 22% and the viability, T/C [6] was 23.9%. The viability, T/C (second compound 1 µM, first compound 0.000999 µM) was 64.3%, the viability, T/C (second compound 1 µM, first compound 0.00316 µM) was 96.1% and the viability, T/C (second compound 1 µM, first compound 0.00999 µM) was 54%. The viability, T/C [7] was 30.4%, the viability, T/C (second compound 1 µM, first compound 0.0999 µM) was 24.4% and the viability, T/C [8] was 22.7%. The viability, T/C (second compound 3.16 µM, first compound 0.000999 µM) was 34.8%, the viability, T/C (second compound 3.16 µM, first compound 0.00316 µM) was 45.4% and the viability, T/C (second compound 3.16 µM, first compound 0.00999 µM) was 37.6%. The viability, T/C [9] was 26.2%, the viability, T/C (second compound 3.16 µM, first compound 0.0999 µM) was 21.2% and the viability, T/C [10] was 20%. For the same compound, the viability, T/C (second compound 10 µM, first compound 0.000999 µM) was 6.05%, the viability, T/C (second compound 10 µM, first compound 0.00316 µM) was 6.87% and the viability, T/C (second compound 10 µM, first compound 0.00999 µM) was 5.66%. For the same compound, the viability, T/C [11] was 4.71%, the viability, T/C (second compound 10 µM, first compound 0.0999 µM) was 5.96% and the viability, T/C [12] was 4.24%.
